Data set [1] in a line: RP-TLC chromatographic lipophilicity parameter (RMW). In kind it is physicochemical. The conditions noted are these: RP2, RP18, RP18W plates; methanol-water, propan-1-ol-water, acetonitrile-water. As for the experimental part: (§1) The lipophilicity study was performed on chromatographic plates for RP-TLC and NP-TLC analysis purchased from Merck (Darmstadt, Germany): silica gel RP18F254 (aluminum plates, No. 1.05559), silica gel RP2F254 (glass plates, No. 1.05747), and RP18WF254 (glass plates, No. 1.13142) were applied as stationary phases in the reversed-phase system. In the case of the NP-TLC system, aluminum chromatographic plates precoated with silica gel 60F254 without (No. 1.05554) and with a concentrating zone (No. 1.05583), glass plates precoated with silica gel 60CNF254 (No. 1.16464), and aluminum plates coated with the mixture of silica gel 60 and Kieselguhr F254 were tested (No. 1.05567).
The lipophilicity studies of the tested compounds were carried out on chromatographic plates 10 cm × 10 cm developed using mobile phases (50 mL) prepared by mixing the respective amounts of the organic modifier (methanol/acetonitrile/propan-1-ol/acetone) and water. In the case of NP-TLC analysis, the addition of 2.4% glacial acetic acid in the mobile phase methanol-water was used. […] The average value of RF (retardation factor) was determined in every case.
(§2) In this study, the chromatographic lipophilicity parameters of both studied compounds were calculated based on the retardation factor (RF) obtained for metformin and phenformin in each mobile phase and chromatographic plates used as the stationary phase. […]

Data set [2] is described as follows: NP-TLC chromatographic lipophilicity parameter (RMW). In kind it is physicochemical. The conditions noted are these: for RMW range over NP-TLC plates: four chromatographic plates; for RMW: NP-TLC. How it is done: as §1
The lipophilicity studies of the tested compounds were carried out on chromatographic plates 10 cm × 10 cm developed using mobile phases (50 mL) prepared by mixing the respective amounts of the organic modifier (methanol/acetonitrile/propan-1-ol/acetone) and water. In the case of NP-TLC analysis, the addition of 2.4% glacial acetic acid in the mobile phase methanol-water was used. The organic modifier concentrations (volume fraction, v/v) varied in a range from 0.40 to 0.90 in constant steps of 0.10. […] Chromatography was performed in a classical developing chamber, which was previously saturated with mobile phase vapors for 20 min. The migration distance was 7.0 cm. After the development, the plates were dried at room temperature (20 ± 1 °C) and visualized in UV light (λ = 254 nm) as the maximum wavelength for both biguanides. All analyses were repeated in triplicate. The average value of RF (retardation factor) was determined in every case.
as §2
Then, a linear correlation between the RM of the tested compounds and the volume ratio of the organic solvent in the mobile phase was performed for every chromatographic plate. The extrapolation of calculated RM values to the zero concentration of the organic modifier (i.e., to pure water) in accordance with Soczewiński-Wachtmeister’s Equation (2) allowed determining a valuable chromatographic parameter of lipophilicity expressed as RMW [1]. RM = RMW − S⋅φ(2) where RMW is the chromatographic parameter obtained using Soczewiński–Wachtmeister’s Equation (2), S is the regression slope, and φ is the volume fraction of the organic modifier (e.g., methanol, propan-1-ol, acetonitrile, acetone) in the mobile phase composition. Statistica v. 13.3 software (StatSoft, Kraków, Poland) was used to determine the parameters of these linear relationships.

For data set [3] the following is noted: n-octanol-water, literature value ref 46; cited from earlier work.

For the molecule `CN(C)C(=N)N=C(N)N` [Metformin, dimethylbiguanide], the “RMW range over RP-TLC systems” value in data set [1] is −4.877 to 0.960. Further, the “RMW range over NP-TLC plates” value is given as −4.127 to 1.242 in data set [2] (acetone-water) and −6.657 to 0.833 in data set [2] (methanol-water-acetic acid).
As to `[H]/N=C(/N)N/C(=N/[H])NCCc1ccccc1` [Phenformin], the “RMW range over RP-TLC systems” value in data set [1] was 0.142 to 0.728. The RMW was -4.383 in data set [2] (Silica gel 60F254, acetone-water) and -1.983 in data set [2] (Silica gel 60F254 with concentrating zone, methanol-water-acetic acid). The “RMW range over NP-TLC plates” value in data set [2] (acetone-water) was −4.383–0.790; in data set [2] (methanol-water-acetic acid), −1.983–6.170. Further, the logPow in data set [3] is −0.83.

The values are drawn from publication PMC8588420 (Molecules, 2021).
